Laboratory results reported in ChEMBL document CHEMBL6153046, “Semisynthesis of Glycosmis pentaphylla Alkaloid Derivatives: Pyranoacridone-Hydroxamic Acid Cytotoxic Conjugates with HDAC and Topoisomerase II α Dual Inhibitory Activity” (J Nat Prod, 2025).
Active and inactive are the calls of the source. No cut-off for these calls is given here.

What was measured:
[1] = system: SCC-25; assay: Cytotoxicity against human SCC-25 cells assessed as cell viability incubated for 96 hrs by MTT assay; assay type: functional, cell-based; conditions: SCC-25, 96 h
[2] = system: MCF7; assay: Cytotoxicity against human MCF-7 cells assessed as cell viability incubated for 96 hrs by MTT assay; assay type: functional, cell-based; conditions: MCF7, 96 h
[3] = system: Calu-3; assay: Cytotoxicity against human CALU-3 cells assessed as cell viability incubated for 96 hrs by MTT assay; assay type: functional, cell-based; conditions: Calu-3, 96 h
[4] = system: SCC-25; assay: Induction of apoptosis in human SCC-25 cells assessed as late apoptotic cells at 200 uM incubated for 48 hrs by Annexin V-Alexa fluor 488 and propidium iodide staining based flow cytometry relative to control; assay type: functional
[5] = target: DNA topoisomerase 2-alpha (Homo sapiens) (UniProt P11388); conditions: dose 2.0 mM, time 30.0 min
Chain of DNA topoisomerase 2-alpha (Homo sapiens) (P11388 whole entry): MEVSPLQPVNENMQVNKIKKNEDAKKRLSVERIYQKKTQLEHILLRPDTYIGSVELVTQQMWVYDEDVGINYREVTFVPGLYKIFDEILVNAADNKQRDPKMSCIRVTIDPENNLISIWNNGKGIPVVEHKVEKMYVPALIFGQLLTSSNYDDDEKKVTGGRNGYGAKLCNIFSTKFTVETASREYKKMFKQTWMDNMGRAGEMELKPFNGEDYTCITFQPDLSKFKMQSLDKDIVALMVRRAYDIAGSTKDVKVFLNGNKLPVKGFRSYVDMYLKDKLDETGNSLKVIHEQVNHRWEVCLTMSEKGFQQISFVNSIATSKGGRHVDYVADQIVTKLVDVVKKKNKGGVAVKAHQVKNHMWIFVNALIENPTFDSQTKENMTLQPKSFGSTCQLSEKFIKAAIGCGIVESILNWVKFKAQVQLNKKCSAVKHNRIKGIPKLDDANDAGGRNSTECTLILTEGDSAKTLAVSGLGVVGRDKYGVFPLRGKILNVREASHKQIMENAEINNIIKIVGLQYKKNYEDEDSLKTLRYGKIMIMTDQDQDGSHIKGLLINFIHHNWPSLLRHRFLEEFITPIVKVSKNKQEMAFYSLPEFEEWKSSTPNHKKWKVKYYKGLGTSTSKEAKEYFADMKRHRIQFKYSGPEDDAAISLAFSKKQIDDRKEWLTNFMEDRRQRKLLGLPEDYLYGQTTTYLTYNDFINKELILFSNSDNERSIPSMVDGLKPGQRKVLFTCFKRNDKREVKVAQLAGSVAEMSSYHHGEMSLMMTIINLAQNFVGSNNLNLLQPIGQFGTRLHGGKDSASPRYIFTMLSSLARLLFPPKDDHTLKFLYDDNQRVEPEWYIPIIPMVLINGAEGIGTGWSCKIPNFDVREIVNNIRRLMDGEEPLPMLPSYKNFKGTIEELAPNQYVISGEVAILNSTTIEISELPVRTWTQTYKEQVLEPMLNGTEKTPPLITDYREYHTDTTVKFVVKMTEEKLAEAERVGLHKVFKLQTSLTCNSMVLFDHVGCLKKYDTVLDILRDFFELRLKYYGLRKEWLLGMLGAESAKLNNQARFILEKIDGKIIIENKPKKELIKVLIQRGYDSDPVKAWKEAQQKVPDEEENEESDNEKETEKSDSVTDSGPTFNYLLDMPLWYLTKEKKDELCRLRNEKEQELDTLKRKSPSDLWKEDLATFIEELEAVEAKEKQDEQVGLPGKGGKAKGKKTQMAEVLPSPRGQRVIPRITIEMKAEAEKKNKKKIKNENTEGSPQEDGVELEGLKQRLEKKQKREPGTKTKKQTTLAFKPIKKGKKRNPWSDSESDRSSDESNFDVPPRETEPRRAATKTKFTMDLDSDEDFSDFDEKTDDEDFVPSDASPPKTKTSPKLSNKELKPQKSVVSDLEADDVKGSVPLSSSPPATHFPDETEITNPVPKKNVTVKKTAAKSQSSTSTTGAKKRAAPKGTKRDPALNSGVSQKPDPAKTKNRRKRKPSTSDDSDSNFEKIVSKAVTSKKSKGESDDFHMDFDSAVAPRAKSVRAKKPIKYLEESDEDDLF

[6] = system: SCC-25; assay: Induction of apoptosis in human SCC-25 cells assessed as necrotic cells at 200 uM incubated for 48 hrs by Annexin V-Alexa fluor 488 and propidium iodide staining based flow cytometry relative to control; assay type: functional
[7] = system: SCC-25; assay: Induction of apoptosis in human SCC-25 cells assessed as early apoptotic cells at 200 uM incubated for 48 hrs by Annexin V-Alexa fluor 488 and propidium iodide staining based flow cytometry relative to control; assay type: functional
[8] = system: SCC-25; assay: Induction of apoptosis in human SCC-25 cells assessed as viable at 200 uM incubated for 48 hrs by Annexin V-Alexa fluor 488 and propidium iodide staining based flow cytometry relative to control; assay type: functional
[9] = Cytotoxicity against human Oral epithelial cell assessed as cell viability incubated for 96 hrs by MTT assay; conditions: for IC50: oral epithelial cell; for IC50 at 96 h: human, oral epithelial cells
[10] = target: DNA topoisomerase 2-alpha (Homo sapiens) (UniProt P11388); assay: Inhibition of human topoisomerase II alpha using kinetoplast DNA as substrate incubated for 30 mins; conditions: dose 10-100 µM
[11] = system: SCC-25; assay: Induction of apoptosis in human SCC-25 cells assessed as late apoptotic cells at 0.1 uM incubated for 48 hrs by Annexin V-Alexa fluor 488 and propidium iodide staining based flow cytometry relative to control; assay type: functional
[12] = system: SCC-25; assay: Induction of apoptosis in human SCC-25 cells assessed as necrotic cells at 10 uM incubated for 48 hrs by Annexin V-Alexa fluor 488 and propidium iodide staining based flow cytometry relative to control; assay type: functional
[13] = system: SCC-25; assay: Induction of apoptosis in human SCC-25 cells assessed as early apoptotic cells at 1 uM incubated for 48 hrs by Annexin V-Alexa fluor 488 and propidium iodide staining based flow cytometry relative to control; assay type: functional
[14] = system: SCC-25; assay: Induction of apoptosis in human SCC-25 cells assessed as early apoptotic cells at 0.1 uM incubated for 48 hrs by Annexin V-Alexa fluor 488 and propidium iodide staining based flow cytometry relative to control; assay type: functional
[15] = system: SCC-25; assay: Induction of apoptosis in human SCC-25 cells assessed as necrotic cells at 1 uM incubated for 48 hrs by Annexin V-Alexa fluor 488 and propidium iodide staining based flow cytometry relative to control; assay type: functional
[16] = system: SCC-25; assay: Induction of apoptosis in human SCC-25 cells assessed as viable at 0.1 uM incubated for 48 hrs by Annexin V-Alexa fluor 488 and propidium iodide staining based flow cytometry relative to control; assay type: functional
[17] = system: SCC-25; assay: Induction of apoptosis in human SCC-25 cells assessed as viable at 1 uM incubated for 48 hrs by Annexin V-Alexa fluor 488 and propidium iodide staining based flow cytometry relative to control; assay type: functional
[18] = system: SCC-25; assay: Induction of apoptosis in human SCC-25 cells assessed as necrotic cells at 0.1 uM incubated for 48 hrs by Annexin V-Alexa fluor 488 and propidium iodide staining based flow cytometry relative to control; assay type: functional
[19] = system: SCC-25; assay: Induction of apoptosis in human SCC-25 cells assessed as late apoptotic cells at 1 uM incubated for 48 hrs by Annexin V-Alexa fluor 488 and propidium iodide staining based flow cytometry relative to control; assay type: functional
[20] = system: SCC-25; assay: Induction of apoptosis in human SCC-25 cells assessed as viable at 10 uM incubated for 48 hrs by Annexin V-Alexa fluor 488 and propidium iodide staining based flow cytometry relative to control; assay type: functional
[21] = system: SCC-25; assay: Induction of apoptosis in human SCC-25 cells assessed as early apoptotic cells at 10 uM incubated for 48 hrs by Annexin V-Alexa fluor 488 and propidium iodide staining based flow cytometry relative to control; assay type: functional
[22] = system: SCC-25; assay: Induction of apoptosis in human SCC-25 cells assessed as late apoptotic cells at 10 uM incubated for 48 hrs by Annexin V-Alexa fluor 488 and propidium iodide staining based flow cytometry relative to control; assay type: functional
[23] = target: DNA topoisomerase 2-alpha (Homo sapiens) (UniProt P11388); assay: Inhibition of human topoisomerase II alpha using kinetoplast DNA as substrate at 10 microM incubated for 30 mins

inhibition [10] | Compound | IC50 [1] | IC50 [2] | IC50 [3] | IC50 [9] | IC50 at 96 h [9] | also measured
 | COc1cc([C@@H]2c3cc4c(cc3[C@@H](O[C@@H]3O[C@@H]5CO[C@@H](C)O[C@H]5[C@H](O)[C@H]3O)[C@H]3COC(=O)[C@H]23)OCO4)cc(OC)c1O [ETOPOSIDE] | 3.4 µM | 55.6 µM | 0.6 µM | Not_determined |  | Activity [4]: 17.2%; inhibition [5]: Active; Activity [6]: 13.3%; Activity [7]: 2.76%; Activity [8]: 65.5%
Dose-dependent-effect | Cn1c2ccccc2c(=O)c2c(OCCCC(=O)NO)cc3c(c21)C=CC(C)(C)O3 | 2.2 µM | 2.8 µM | 3.2 µM |  | 27 µM | 
 | COc1cc2c(c3c1c(=O)c1ccccc1n3CCCCC(=O)NO)C=CC(C)(C)O2 | > 100 µM | > 100 µM | 29.5 µM | Not_determined |  | 
 | COc1cc2c(c3c1c(=O)c1ccccc1n3CCCCCC(=O)NO)C=CC(C)(C)O2 | 14.8 µM | 40.8 µM | 18 µM |  | > 100 µM | 
 | COc1cc2c(c3[nH]c4ccccc4c(=O)c13)C=CC(C)(C)O2 | 21.2 µM | 191 µM | 13.9 µM | Not_determined |  | 
 | COc1cc2c(c3c1c(=O)c1ccccc1n3CCCC(=O)NO)C=CC(C)(C)O2 | 36 µM | > 100 µM | 36.8 µM | Not_determined |  | 
 | COc1cc2c(c3c1c(=O)c1ccccc1n3Cc1cccc(C(=O)NO)c1)C=CC(C)(C)O2 | 39.3 µM | 80.1 µM | 42 µM | Not_determined |  | 
 | COc1cc2c(c3c1c(=O)c1ccccc1n3CC(=O)NO)C=CC(C)(C)O2 | 41.5 µM | > 100 µM | 61.8 µM | Not_determined |  | 
Dose-dependent-effect | Cn1c2ccccc2c(=O)c2c(OCCCCC(=O)NO)cc3c(c21)C=CC(C)(C)O3 | 0.35 µM | 1.03 µM | 1.51 µM |  | > 100 µM | Activity [11]: 1.35%; Activity [12]: 33.1%; Activity [13]: 1.13%; Activity [14]: 0.63%; Activity [15]: 7.49%; Activity [16]: 96.1%; Activity [17]: 87%; Activity [18]: 1.96%; Activity [19]: 4.35%; Activity [20]: 13.7%; Activity [21]: 0.15%; Activity [22]: 53.1%
Dose-dependent-effect | Cn1c2ccccc2c(=O)c2c(OCCCCCCC(=O)NO)cc3c(c21)C=CC(C)(C)O3 | 0.7 µM | 5.7 µM | 10.6 µM |  | > 100 µM | 
 | Cn1c2ccccc2c(=O)c2c(OCc3ccc(C(=O)NO)cc3)cc3c(c21)C=CC(C)(C)O3 | 1.66 µM | 4.71 µM | 1.81 µM |  | > 100 µM | 
Dose-dependent-effect | Cn1c2ccccc2c(=O)c2c(OCC(=O)NO)cc3c(c21)C=CC(C)(C)O3 | 1.2 µM | 10.9 µM | 4 µM |  | > 100 µM | 
Dose-dependent-effect | Cn1c2ccccc2c(=O)c2c(OCCCCCC(=O)NO)cc3c(c21)C=CC(C)(C)O3 | 9.7 µM | 8.3 µM | 16.1 µM |  | 24.5 µM | 
Dose-dependent-effect | COc1cc2c(c3c1c(=O)c1ccccc1n3CCCCCCC(=O)NO)C=CC(C)(C)O2 | 1.11 µM | 6.12 µM | 4.37 µM |  | 60.2 µM | 
 | Cn1c2ccccc2c(=O)c2c(O)cc3c(c21)C=CC(C)(C)O3 [NORACRONYCINE] | 14.1 µM | 187 µM | 97.5 µM | Not_determined |  | 
 | Cn1c2ccccc2c(=O)c2c(OCc3cccc(C(=O)NO)c3)cc3c(c21)C=CC(C)(C)O3 | 23.1 µM | 6.62 µM | 6.53 µM |  | > 100 µM | inhibition [23]: Active
Dose-dependent-effect | COc1cc2c(c3c1c(=O)c1ccccc1n3Cc1ccc(C(=O)NO)cc1)C=CC(C)(C)O2 | 7.7 µM | 19.7 µM | 14.2 µM |  | 82.5 µM | 
